The target of the assay is T1, human DGAT2 (Homo sapiens, UniProt Q96PD7).
T1 construct: FLAG (DYKDDDDK); made in house; host or cells: Sf-21 insect cells (BacPAK baculovirus system); membrane fraction used
T1 sequence (Q96PD7 1-388): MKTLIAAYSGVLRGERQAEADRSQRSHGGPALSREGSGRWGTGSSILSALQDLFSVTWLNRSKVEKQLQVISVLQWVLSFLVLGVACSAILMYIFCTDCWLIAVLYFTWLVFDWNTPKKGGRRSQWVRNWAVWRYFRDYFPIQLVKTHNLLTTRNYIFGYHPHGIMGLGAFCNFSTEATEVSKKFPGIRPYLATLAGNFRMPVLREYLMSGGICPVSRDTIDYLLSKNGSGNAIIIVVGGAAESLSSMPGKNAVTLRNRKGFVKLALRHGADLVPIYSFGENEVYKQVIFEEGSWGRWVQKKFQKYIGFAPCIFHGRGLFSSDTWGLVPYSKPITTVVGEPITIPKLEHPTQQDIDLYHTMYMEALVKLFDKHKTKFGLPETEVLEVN
The experiment in a line: DGAT2 enzyme activity inhibition, Phospholipid FlashPlate SPA. The format is biochemical. To be noted: recombinant human DGAT2 membrane protein from Sf-21 cells; inhibition of [14C]-TG production; 37° C. The method, then: In order to prepare the pBacPAK9-DGAT2, which is DGAT2 expression vector, the human DGAT2 gene amplified by polymerase chain reaction (PCR) was cloned into the EcoR1 and Xho1 sites of the pBacPAK9 (clonctech) vector. The nucleotide sequence of the primers used in PCR was the forward primer 5′ […] (SEQ. ID. NO: 2). The composition of the reaction solution was to contain 50 ng of cDNA clone (OriGene), 200 μM of dATP, dCTP, dTTP, dGTP, 200 nM of each primer, 1 unit of Tag DNA Polymerase (Toyobo), 1×PCR buffer, and the final volume was adjusted to 20 μl. The reaction conditions were denatured at 95° C. for 5 minutes, followed by 30 times of 94° C. for 20 seconds, 60° C. for 20 seconds, and 72° C. for 90 seconds, followed by further reaction at 72° C. for 7 minutes.
Recombinant human DGAT2 protein was expressed in Sf-21 cells, which are insect cells, by using the BacPack baculovirus expression system (Clontech). The brief manufacturing process is as follows. First, the pBacPAK9-DGAT2 expression vector was transfected with BacPAK6 virus DNA (Bsu36I digest) into sf21 cells using Bacfectin to prepare a recombinant DGAT2 expressing baculovirus. The thus prepared baculovirus was infected with Sf-21 cells at 10 MOI (multiplicity of infection), and after 72 hours, infected insect cells were collected and membrane proteins were isolated. For membrane protein separation, the cell pellet was dissolved in a sucrose solution containing 250 mM sucrose, 10 mM Tris (pH 7.4), and 1 mM ethylenediamine-tetraacetic acid (EDTA), and then homogenized by using a dounce homogenizer, and the supernatant was taken by centrifuging at 600×g for 15 minutes, and centrifuged at 100,000×g for 1 hour to discard the supernatant, and the remaining pellet was resuspended in 20 mM HEPES buffer (pH 7.4). The prepared DGAT2 overexpressing membrane protein was dispensed in 100 μl and stored at −80° C. until use. Protein concentration was quantified by using the BCA Protein Assay Kit (Thermo Scientific).
In vitro DGAT2 analysis was performed using a Phospholipid Flash Plate (PerkinElmer) based on the principle of SPA (Scintilation Proximity Assay). First, DGAT2 inhibition compounds serially diluted 5 times from 3 nM to 10 μM (final concentration, 1% DMSO) were mixed in a buffer solution containing 2 μg DGAT2-membrane protein and 20 mM HEPES, 20 mM MgCl2, 1 mg/mL BSA, 50 μM 1,2 sn-oleoyl glycerol (Sigma), put in a 96-well flash plate (FlashPlate) and reacted at 37° C. for 20 minutes, and then 1 μM [14C] ole oil CoA (PerkinElmer, NEC651050UC) was added to be a final volume of 100 μL and further reacted at 37° C. for 15 minutes. After the enzymatic reaction was completed, 100 μL of isopropanol was added, the plate was sealed with a film, and the plate was shaken slowly in a plate shaker. The next day, the amplified scintillation signal (cpm) in Topcounter (Packard) was measured to measure the degree of production of [14C]-labeled triacyl glycerol (TG) as a reaction product. The measured value when the compound was not treated was used as a positive control, and the measured value of the compound treated group was calculated as a relative % to measure the inhibition effect of the compound on TG production.

Broadly, the IC50 is the midpoint of a concentration-inhibition curve. On to `CCOc1ccccc1O[C@@H]1CCCN(c2cncc(Nc3ncc(C(=O)O)s3)n2)C1` [Example 1, (R)-2-((6-(3-(2-ethoxyphenoxy)piperidin-1-yl)pyrazin-2-yl)amino)thiazole-5-carboxylic Acid], for which the IC50 was 6.2 µM.

Regarding `CCOc1ccccc1O[C@@H]1CCCN(c2cncc(Nc3nc(C)c(C)s3)n2)C1` [Example 2, (R)—N-(6-(3-(2-ethoxyphenoxy)piperidin-1-yl)pyrazin-2-yl)-4,5-dimethylthiazol-2-amine], the IC50 is 6.5 µM.

For the compound `CCOc1ccccc1O[C@@H]1CCCN(c2cncc(Nc3nccs3)n2)C1` [Example 3, (R)—N-(6-(3-(2-ethoxyphenoxy)piperidin-1-yl)pyrazin-2-yl)thiazol-2-amine], the half-maximal inhibitory concentration (IC50) worked out at 6.3 µM.

`CCOc1ccccc1O[C@@H]1CCCN(c2cncc(Nc3nc(-c4ccccc4)cs3)n2)C1` [Example 4, (R)—N-(6-(3-(2-ethoxyphenoxy)piperidin-1-yl)pyrazin-2-yl)-4-phenylthiazol-2-amine]: the half-inhibitory concentration (IC50) was more than 10 µM.

Take `CCOc1ccccc1O[C@@H]1CCCN(c2cncc(Nc3nc4ccccc4s3)n2)C1` [Example 5, (R)—N-(6-(3-(2-ethoxyphenoxy)piperidin-1-yl)pyrazin-2-yl)benzo[d]thiazol-2-amine]: the IC50 is not below 13 µM.

For `CCOc1ccccc1O[C@@H]1CCCN(c2cncc(Nc3nc4ccc(S(C)(=O)=O)cc4s3)n2)C1` [Example 7, (R)—N-(6-(3-(2-ethoxyphenoxy)piperidin-1-yl)pyrazin-2-yl)-6-(methanesulfonyl)benzo[d]thiazol-2-amine], the 50% inhibitory concentration (IC50) is 8.8 µM.

`CCOc1ccccc1O[C@@H]1CCCN(c2cncc(Nc3cc(C(C)(C)COCCOC)no3)n2)C1` [Example 8, (R)—N-(6-(3-(2-ethoxyphenoxy)piperidin-1-yl)pyrazin-2-yl)-3-(1-(2-methoxyethoxy)-2-methylpropan-2-yl)isooxazol-5-amine]: the IC50 worked out at 0.55 µM.

For the compound `CCOc1ccccc1O[C@@H]1CCCN(c2cncc(Nc3nc(-c4ccccc4)co3)n2)C1` [Example 9, (R)—N-(6-(3-(2-ethoxyphenoxy)piperidin-1-yl)pyrazin-2-yl)-4-phenyloxazol-2-amine], the IC50 came to 2.3 µM.

Turning to `CCOc1ccccc1O[C@@H]1CCCN(c2cncc(Nc3nc4ccccc4o3)n2)C1` [Example 10, (R)—N-(6-(3-(2-ethoxyphenoxy)piperidin-1-yl)pyrazin-2-yl)benzo[d]oxazol-2-amine], the concentration for half-maximal inhibition (IC50) is 0.25 µM.

As for `CCOc1ccccc1O[C@@H]1CCCN(c2cncc(Nc3nc4cc(Cl)ccc4o3)n2)C1` [Example 11, (R)-5-chloro-N-(6-(3-(2-ethoxyphenoxy)piperidin-1-yl)pyrazin-2-yl)benzo[d]oxazol-2-amine], the IC50 was 0.059 µM.

Consider `CCOc1ccccc1O[C@@H]1CCCN(c2cncc(Nc3nc4cc(CC(=O)O)ccc4o3)n2)C1` [Example 12, (R)-2-(2-((6-(3-(2-ethoxyphenoxy)piperidin-1-yl)pyrazin-2-yl)amino)benzo[d]oxazol-5-yl)acetic Acid], for which the concentration for half-maximal inhibition (IC50) came to 3.4 µM.

Regarding `CCOc1ccccc1O[C@@H]1CCCN(c2cncc(Nc3nc4cc(C(C)(C)C(=O)O)ccc4o3)n2)C1` [Example 13, (R)-2-(2-((6-(3-(2-ethoxyphenoxy)piperidin-1-yl)pyrazin-2-yl)amino)benzo[d]oxazol-5-yl)-2-methylpropanoic Acid], the half-maximal inhibitory concentration (IC50) turned out to be 0.96 µM.

In the case of `CCOc1ccccc1O[C@@H]1CCCN(c2cncc(Nc3nc4cc(CC(C)(C)C(=O)O)ccc4o3)n2)C1` [Example 14, (R)-3-(2-((6-(3-(2-ethoxyphenoxy)piperidin-1-yl)pyrazin-2-yl)amino)benzo[d]oxazol-5-yl)-2,2-dimethylpropanoic Acid], the half-inhibitory concentration (IC50) was determined as 3.1 µM.

`CCOc1ccccc1O[C@@H]1CCCN(c2cncc(Nc3nc4cc(/C=C/C(=O)O)ccc4o3)n2)C1` [Example 15, (R,E)-3-(2-((6-(3-(2-ethoxyphenoxy)piperidin-1-yl)pyrazin-2-yl)amino)benzo[d]oxazol-5-yl)acrylic Acid]: the IC50 was determined as 7.3 µM.

In the case of `CCOc1ccccc1O[C@@H]1CCCN(c2cncc(Nc3nc4cc(CCC(=O)O)ccc4o3)n2)C1` [Example 16, (R)-3-(2-((6-(3-(2-ethoxyphenoxy)piperidin-1-yl)pyrazin-2-yl)amino)benzo[d]oxazol-5-yl)propanoic Acid], the IC50 was more than 10 µM.

For the compound `CCOc1ccccc1O[C@@H]1CCCN(c2cncc(Nc3nc4ccc(C(C)(C)C(=O)O)cc4o3)n2)C1` [Example 17, (R)-2-(2-((6-(3-(2-ethoxyphenoxy)piperidin-1-yl)pyrazin-2-yl)amino)benzo[d]oxazol-6-yl)-2-methylpropanoic Acid], the half-maximal inhibitory concentration (IC50) was found to be 1.3 µM.

On to `CCOc1ccccc1O[C@@H]1CCCN(c2cncc(Nc3nc4ccc(CCC(=O)O)cc4o3)n2)C1` [Example 18, (R)-3-(2-((6-(3-(2-ethoxyphenoxy)piperidin-1-yl)pyrazin-2-yl)amino)benzo[d]oxazol-6-yl)propanoic Acid], for which the half-maximal inhibitory concentration (IC50) came out at 1.1 µM.

Turning to `CCOc1ccccc1O[C@@H]1CCCN(c2cncc(Nc3cc[nH]n3)n2)C1` [Example 19, (R)-6-(3-(2-ethoxyphenoxy)piperidin-1-yl)-N-(1H-pyrazol-3-yl)pyrazin-2-amine], the IC50 is 1.7 µM.

Take `CCOc1ccccc1O[C@@H]1CCCN(c2cncc(Nc3ccn(CC(=O)O)n3)n2)C1` [Example 20, (R)-2-(3-((6-(3-(2-ethoxyphenoxy)piperidin-1-yl)pyrazin-2-yl)amino)-1H-pyrazol-1-yl)acetic Acid]: the concentration for half-maximal inhibition (IC50) is more than 10 µM.

In the case of `CCOc1ccccc1O[C@@H]1CCCN(c2cncc(Nc3ccn(CC(C)(C)C(=O)O)n3)n2)C1` [Example 21, (R)-3-(3-((6-(3-(2-ethoxyphenoxy)piperidin-1-yl)pyrazin-2-yl)amino)-1H-pyrazol-1-yl)-2,2-dimethylpropanoic Acid], the half-inhibitory concentration (IC50) is more than 10 µM.

Turning to `CCOc1ccccc1O[C@@H]1CCCN(c2cncc(Nc3nnnn3C)n2)C1` [Example 23, (R)-6-(3-(2-ethoxyphenoxy)piperidin-1-yl)-N-(1-methyl-1H-tetrazol-5-yl)pyrazin-2-amine], the IC50 came out at 0.27 µM.

For the compound `CCOc1ccccc1O[C@@H]1CCCN(c2cncc(Nc3ccccc3)n2)C1` [Example 24, (R)—N-6-(3-(2-ethoxyphenoxy)piperidin-1-yl)-N-phenylpyrazin-2-amine], the half-inhibitory concentration (IC50) was 5.5 µM.

Take `CCOc1ccccc1O[C@@H]1CCCN(c2cncc(Nc3ccc(CC(=O)NCc4ccncc4)cc3)n2)C1` [Example 26, (R)-2-(4-((6-(3-(2-ethoxyphenoxy)piperidin-1-yl)pyrazin-2-yl)amino)phenyl)-N-(pyridin-4-ylmethyl)acetamide]: the IC50 was 6.7 µM.

In the case of `CCOc1ccccc1O[C@@H]1CCCN(c2cncc(Nc3ccc(C(C)(C)C(=O)O)cc3)n2)C1` [Example 27, (R)-2-(4-((6-(3-(2-ethoxyphenoxy)piperidin-1-yl)pyrazin-2-yl)amino)phenyl)-2-methylpropanoic Acid], the IC50 was more than 10 µM.

As for `CCOc1ccccc1O[C@@H]1CCCN(c2cncc(Nc3cccc(C(C)(C)C(=O)O)c3)n2)C1` [Example 29, (R)-2-(3-((6-(3-(2-ethoxyphenoxy)piperidin-1-yl)pyrazin-2-yl)amino)phenyl)-2-methylpropanoic Acid], the IC50 was determined as 6.4 µM.

Source of the values: patent publication US12630528B2, “Amino aryl derivative useful as diacylglycerol acyltransferase 2 inhibitor and use thereof” (LG CHEM, LTD., priority 2019, dated 2026).
